# Columns and labels:
# Assay in all cases: Herbicidal greenhouse screening, post-emergence
# Format in all cases: in vivo
# Conditions in all cases: visual, 3 weeks after spraying
# Oryza sativa (ORYSA) = test system: Oryza sativa (ORYSA)
# Experimental: (§1) Seeds of mono‐ and dicotyledonous weed plants were sown in plastic pots of 7 cm diameter filled with a clayey silt soil substrate. The plants were maintained for the preparatory phase of germination and initial growth in the greenhouse under optimum growth conditions. Phosphonothrixin (1) was prepared for application as an emulsion concentrate and diluted together with 0.2% agrotin (a polyfunctional non‐ionic additive) in water corresponding to a spray volume of approximately 600 L ha^−1. At a growth stage of 2 to 4 true leaves the test plants were sprayed and then placed in the greenhouse for 3 weeks under optimum growth conditions. Subsequently, the effect of phosphonothrixin (1) was assessed visually relative to the untreated controls resulting in herbicidal effects (%) ranging from 0% (no effect = untreated control) to 100% (complete control = died‐off ).
# [1] = test system: Pharbitis purpurea (PHBPU)
# Experimental: as §1
# Avena fatua (AVEFA) = test system: Avena fatua (AVEFA)
# Experimental: as §1
# [2] = test system: Cyperus esculentus (CYPES)
# Experimental: as §1
# Viola tricolor (VIOTR) = test system: Viola tricolor (VIOTR)
# Experimental: as §1
# [3] = test system: Brassica napus (winter rape, BRSNW)
# Experimental: as §1
# [4] = test system: Abutilon theophrasti (ABUTH)
# Experimental: as §1
# [5] = test system: Echinochloa crus‐galli (ECHCG)
# Experimental: as §1
smiles,measurement,setting,value
CC(=O)C(O)(CO)CP(=O)(O)O (centres unmarked) [phosphonothrixin],"herbicidal effect rating, post-emergence",Oryza sativa (ORYSA); 1280 g/ha,1 (‘1’ = 20–39% inhibition)
same,"herbicidal effect rating, post-emergence",Oryza sativa (ORYSA); 5120 g/ha,2 (‘2’ = 40–59% inhibition)
same,"herbicidal effect rating, post-emergence",[1]; 80 g/ha,4 (‘4’ = 80–90% inhibition)
same,"herbicidal effect rating, post-emergence",[1]; 320 g/ha,4 (‘4’ = 80–90% inhibition)
same,"herbicidal effect rating, post-emergence",[1]; 1280 g/ha,4 (‘4’ = 80–90% inhibition)
same,"herbicidal effect rating, post-emergence",[1]; 5120 g/ha,4 (‘4’ = 80–90% inhibition)
same,"herbicidal effect rating, post-emergence",Avena fatua (AVEFA); 80 g/ha,2 (‘2’ = 40–59% inhibition)
same,"herbicidal effect rating, post-emergence",Avena fatua (AVEFA); 320 g/ha,3 (‘3’ = 60–79% inhibition)
same,"herbicidal effect rating, post-emergence",Avena fatua (AVEFA); 1280 g/ha,4 (‘4’ = 80–90% inhibition)
same,"herbicidal effect rating, post-emergence",Avena fatua (AVEFA); 5120 g/ha,4 (‘4’ = 80–90% inhibition)
same,"herbicidal effect rating, post-emergence",[2]; 320 g/ha,2 (‘2’ = 40–59% inhibition)
same,"herbicidal effect rating, post-emergence",[2]; 1280 g/ha,3 (‘3’ = 60–79% inhibition)
same,"herbicidal effect rating, post-emergence",[2]; 5120 g/ha,4 (‘4’ = 80–90% inhibition)
same,"herbicidal effect rating, post-emergence",Viola tricolor (VIOTR); 80 g/ha,1 (‘1’ = 20–39% inhibition)
same,"herbicidal effect rating, post-emergence",Viola tricolor (VIOTR); 320 g/ha,3 (‘3’ = 60–79% inhibition)
same,"herbicidal effect rating, post-emergence",Viola tricolor (VIOTR); 1280 g/ha,4 (‘4’ = 80–90% inhibition)
same,"herbicidal effect rating, post-emergence",Viola tricolor (VIOTR); 5120 g/ha,4 (‘4’ = 80–90% inhibition)
same,"herbicidal effect rating, post-emergence",[3]; 80 g/ha,2 (‘2’ = 40–59% inhibition)
same,"herbicidal effect rating, post-emergence",[3]; 320 g/ha,3 (‘3’ = 60–79% inhibition)
same,"herbicidal effect rating, post-emergence",[3]; 1280 g/ha,4 (‘4’ = 80–90% inhibition)
same,"herbicidal effect rating, post-emergence",[3]; 5120 g/ha,4 (‘4’ = 80–90% inhibition)
same,"herbicidal effect rating, post-emergence",[4]; 80 g/ha,2 (‘2’ = 40–59% inhibition)
same,"herbicidal effect rating, post-emergence",[4]; 320 g/ha,3 (‘3’ = 60–79% inhibition)
same,"herbicidal effect rating, post-emergence",[4]; 1280 g/ha,4 (‘4’ = 80–90% inhibition)
same,"herbicidal effect rating, post-emergence",[4]; 5120 g/ha,4 (‘4’ = 80–90% inhibition)
same,"herbicidal effect rating, post-emergence",[5]; 80 g/ha,1 (‘1’ = 20–39% inhibition)
same,"herbicidal effect rating, post-emergence",[5]; 320 g/ha,2 (‘2’ = 40–59% inhibition)
same,"herbicidal effect rating, post-emergence",[5]; 1280 g/ha,4 (‘4’ = 80–90% inhibition)
same,"herbicidal effect rating, post-emergence",[5]; 5120 g/ha,4 (‘4’ = 80–90% inhibition)

# — publication PMC12268802, “The herbicidal natural product phosphonothrixin is an inhibitor of the riboflavin biosynthetic enzyme L‐3,4‐dihydroxy‐2‐butanone‐4‐phosphate synthase” (Pest Management Science, 2025)
